Measured values: publication PMC11173533, “Baicalin and Baicalein Enhance Cytotoxicity, Proapoptotic Activity, and Genotoxicity of Doxorubicin and Docetaxel in MCF-7 Breast Cancer Cells” (Molecules, 2024)
Where “and” joins values, the source holds several entries; their conditions need not be identical. Equal values may be shown once.

Columns and labels:
HUVEC-ST cells [1] = test: Mitochondrial membrane potential (JC-1) in HUVEC-ST cells; assay type: cell-based, human
Protocol: (§1) Unless otherwise indicated, in experiments, cells were seeded at an appropriate density for the specific assay into 96-well plates or Petri dishes. They were then incubated in standard culture conditions, which included a temperature of 37 °C, 100% relative humidity, and a 5% CO2 incubator. […] After treatment, the cells were washed with PBS and, depending on the experiment, immediately used for measurement or cultured in a fresh medium for 24 or 48 h. Control cells were treated with a corresponding volume of PBS. Additional controls for solvents were also performed.
(§2) The mitochondrial membrane potential was measured with the membrane-permeant JC-1 fluorescent probe. […] Thus, the measurement of the ratio of JC-1 dimer to monomer fluorescence can be used for estimating changes in mitochondrial membrane potential (ΔΨm).
(§3) The cells were then incubated in complete darkness for 30 min at 37 °C. After incubation, the cells were washed to remove the dye and suspended in fresh HBSS solution. Finally, the fluorescence intensity was measured using a Cary Eclipse spectrofluorometer (Varian, Inc.) at λex/em = 475 nm/530 nm for monomers and at λex/em = 535 nm/590 nm for dimers. Subsequently, the ratio of the fluorescence intensities at 530 nm/590 nm was calculated. The mitochondrial potential in both cell lines was measured immediately after incubation with investigated compounds. The results are expressed as a percentage of the control, considered 100%.

HUVEC = system: HUVEC; design: method as in Liu et al. [53]; settings: 50 µmol/L, 48 h; ref Liu et al. [53]; cited from earlier work
MCF-7 cells [2] = test: MTT cell viability assay on MCF-7 cells; assay type: cell-based, human; settings: for IC50: Homo sapiens, MCF7, read-out: Inhibitory concentration IC50 (reduces cell viability by 50%); for IC50 / Inhibitory concentration IC10 (reduces cell viability by 10%): MCF-7 cell line, 24 h incubation, MTT; for Concentrations giving statistically significant reduction in the number of living cells: MCF-7, 24 h incubation with flavonoid, p < 0.05 vs control; for Viable cells: MCF-7, doxorubicin 3 µmol/L after 22 h preincubation with flavonoid IC50
Protocol: as §1
The principle of the method is a measurement of the absorbance of formazan, a product of the reduction of the water-soluble tetrazolium salt (MTT) by NADPH-dependent cellular oxidoreductases (mainly succinate dehydrogenase) in living cells. Formazan is insoluble in water and precipitates as purple crystals. The amount of formazan is proportional to the number of living and metabolically active cells.
After treatment, the cells were washed with PBS and cultured in a fresh medium for 48 h. Subsequently, the medium was aspirated, and an aliquot of 50 µL of 0.05 mg/mL MTT solution was added to each microplate well for 3 h. The formazan crystals were dissolved in dimethyl sulfoxide (DMSO), and the absorbance was measured at a wavelength of λ = 580 nm. The percentage of viable cells was calculated by comparing the absorbance value of the test samples to the absorbance value of the control, taking the absorbance of the control as 100%.

MCF-7 cells [3] = test: Mitochondrial membrane potential (JC-1) in MCF-7 cells; assay type: cell-based, human
Protocol: as §1, §2, §3

MCF-7 cells [4] = test: Flavonoid-drug combination index (MTT, CompuSyn) in MCF-7 cells; assay type: cell-based, human
Protocol: (§4) The experiment with a non-constant combination of BLIN and BLEIN with DOX or DTX was carried out to determine the synergistic, additive, or antagonistic effect between investigated flavonoids and anticancer drugs. […] Subsequently, cell viability was determined by MTT assay. […] The results were presented as a combination index (CI).

HUVEC-ST cells [5] = test: Flavonoid-drug combination index (MTT, CompuSyn) in HUVEC-ST cells; assay type: cell-based, human
Protocol: as §4

HUVEC-ST cells [6] = test: Annexin V FITC/propidium iodide double staining in HUVEC-ST cells; assay type: cell-based, human
Protocol: as §1
(§5) This assay is based on the principle that, in viable cells, phosphatidylserine (PS) is located in the inner membrane (side facing the cytoplasm). However, upon induction of apoptosis, PS is translocated to the outer membrane (PS also appears on the necrotic cell surface). The exposed phosphatidylserine can be detected by protein Annexin V stained with FITC dye. The addition of propidium iodide (PI) enabled necrotic cells to be distinguished. Thus, this method is convenient for counting and differentiating live cells from those undergoing apoptosis or necrosis.
(§6) The analysis was performed according to the manufacturer’s protocol on cells immediately after the treatment and 24 or 48 h postincubation. Samples were analyzed using the flow cytometer LSR® II from Becton Dickinson (San Jose, CA, USA) using an argon laser with a wavelength of λ = 488 nm.

MCF-7 cells [7] = test: Annexin V FITC/propidium iodide double staining in MCF-7 cells; assay type: cell-based, human; settings: for Viable cells: docetaxel IC50 + high concentration of flavonoid
Protocol: as §1, §5, §6

HUVEC-ST cells [8] = test: Alkaline comet assay in HUVEC-ST cells; assay type: cell-based, human; settings: doxorubicin IC50 + flavonoid IC50 preincubation, longest postincubation time (48 h)
Protocol: as §1
The comet assay, also known as the single-cell gel electrophoresis assay, is a highly sensitive and versatile method for measuring single- and double-stranded DNA breaks. The assay uses an electric field to move negatively charged DNA fragments through an agarose gel. The amount of migration reflects the level of DNA damage in the cells.
The analysis was performed under alkaline conditions, according to the method of Singh et al., on cells immediately after the treatment and 24 or 48 h postincubation. A suspension of cells was mixed with low-melting-point agarose (LMP type XI) and spread onto a microscope glass slide previously coated with standard melting point agarose (NMP type I). After 2 h of cells lysis in a buffer containing (2.5 mol/L NaCl, 100 mmol/L Na2-EDTA, 10 mmol/L TRIS, 1% Triton X-100), DNA unwinding and electrophoresis were carried out in a buffer containing (1 mmol/L Na2-EDTA, 300 mmol/L NaOH) and (29 V, 30 mA). Before analysis, the slides were stained with DAPI solution (2 μg/mL). One hundred randomly chosen cells were analyzed on each slide using a fluorescence microscope Zeiss Axio Scope A1 (Carl Zeiss, Oberkochen, Germany) with a video camera connected to the image-analysis system Lucia-Comet v. 7.60 (Laboratory Imaging, Praha, Czech Republic).

[9] = flavonoid IC50 alone 24 h, control = 100%
[10] = doxorubicin IC50 after 22 h preincubation with flavonoid IC50
[11] = flavonoid IC10 22 h preincubation + DOX IC50 2 h
[12] = flavonoid IC10 22 h preincubation + DTX IC50 2 h
[13] = flavonoid IC50 22 h preincubation + DOX IC50 2 h
[14] = flavonoid IC50 22 h preincubation + DTX IC50 2 h
[15] = flavonoid alone (high concentration), 48 h after incubation
[16] = doxorubicin IC50 + flavonoid IC50 preincubation, 48 h post-incubation
[17] = flavonoid IC50 alone 24 h, 24 h after incubation
[18] = flavonoid IC50 alone 24 h, 48 h after incubation

Structure (SMILES) | Mitochondrial membrane potential ΔΨm, % of control (HUVEC-ST cells [1]; [9]) [%] | Viable HUVECs, % of the control (HUVEC) | IC50 (MCF-7 cells [2]) [µM] | Concentrations giving statistically significant reduction in the number of living cells (MCF-7 cells [2]) [µmol/L] | Viable cells (MCF-7 cells [2]) [%] | Inhibitory concentration IC10 (reduces cell viability by 10%) (MCF-7 cells [2]) [µM] | Mitochondrial membrane potential ΔΨm, % of control (MCF-7 cells [3]; [10]) [%] | Mitochondrial membrane potential ΔΨm, % of control (MCF-7 cells [3]; [9]) [%] | Combination index (CI) (MCF-7 cells [4]; [11]) | Combination index (CI) (MCF-7 cells [4]; [12]) | Combination index (CI) (MCF-7 cells [4]; [13]) | Combination index (CI) (MCF-7 cells [4]; [14]) | Combination index (CI) (HUVEC-ST cells [5]; [11]) | Combination index (CI) (HUVEC-ST cells [5]; [12]) | Combination index (CI) (HUVEC-ST cells [5]; [13]) | Combination index (CI) (HUVEC-ST cells [5]; [14]) | AV+/PI− cells (HUVEC-ST cells [6]; [15]) [%] | AV+/PI− cells (undergoing apoptosis) (MCF-7 cells [7]; [16]) [%] | AV+/PI− cells (undergoing apoptosis) (MCF-7 cells [7]; [17]) [%] | AV+/PI+ cells (MCF-7 cells [7]; [18]) [%] | further results
O=C(O)[C@H]1O[C@@H](Oc2cc3oc(-c4ccccc4)cc(=O)c3c(O)c2O)[C@H](O)[C@@H](O)[C@@H]1O [baicalin, baicalein 7-O-β-D-glucuronide] | 72 | 61% ± 8% | 250 ± 10.5 | ≥ 56 | 21 | 36 ± 3.4 | 31 | 30 | 1.158 | 0.9652 | 0.6435 | 0.5421 | 2.915 | 0.9948 | 1.794 | 3.1 and 3.137 | 19 | 34 | ~20 | 25 | Viable cells (HUVEC-ST cells [6]; doxorubicin IC50 + lower concentration (IC10) of flavonoid, longest postincubation time (48 h)): 55%; AV+/PI+ cells (HUVEC-ST cells [6]; [15]): 30%; Viable cells (MCF-7 cells [7]; 24 h after incubation): 22%; Viable cells (MCF-7 cells [7]; 48 h after incubation): 24%; DNA in the comet tail (HUVEC-ST cells [8]): 3%
O=c1cc(-c2ccccc2)oc2cc(O)c(O)c(O)c12 [baicalein, 5,6,7-Trihydroxyflavone] | 59 | 37% ± 3% | 95 ± 4.8 | ≥ 10 | 10 | 9 ± 0.7 | 20 | 30 | 1.073 | 1.08 | 0.3412 | 0.6276 | 0.8721 | 0.9611 | 0.6801 | 0.4428 | 10 | 21 | ~20 | 28 | Mitochondrial membrane potential ΔΨm, % of control (HUVEC-ST cells [1]; [10]): 33%; Mitochondrial membrane potential ΔΨm (HUVEC-ST cells [1]; doxorubicin IC50 after preincubation with flavonoid in low concentration (IC10)): increasing ΔΨm to the level of control; Mitochondrial membrane potential ΔΨm, % of control (MCF-7 cells [3]; docetaxel IC50 after 22 h preincubation with flavonoid IC50): 18%; AV+/PI+ cells (HUVEC-ST cells [6]; docetaxel IC50 + flavonoid IC50, 24 h after incubation): 44%; Change in percentage of AV+/PI− or AV+/PI+ cells vs doxorubicin alone (HUVEC-ST cells [6]; doxorubicin IC50 + flavonoid IC50, 24 h after incubation): increased almost two-fold; DNA in the comet tail (HUVEC-ST cells [8]): 5%
